# Patent US20030059436A1, “Band 3 antigenic peptides, malaria polypeptides and uses thereof” (priority 2001, published 2003)
# “Also recorded” adds a separate entry of the source. Ends that are not written are not given here. * marks the point of attachment. Biotin = O=C1N[C@H]2[C@H](CS[C@H]2CCCCC(=O)*)N1
# B1: GAL4 DNA-BD fusion of Band 3 peptide 6AB (amino acids 807-842) in pGBKT7 (other)
# peptide: DRILLLFKPPKYHPDVPYVKRVKTWRMHLFTGIQII
# modifications: not fully specified (N-terminus); also: GAL4 DNA-BD fusion in pGBKT7, fused part not given here
# B2: GAL4 DNA-BD fusion of Band 3 peptide 5ABC (amino acids 720-761) in pGBKT7 (other)
# peptide: GMPWLSATTVRSVTHANALTVMGKASTPGAAAQIQEVKEQRI
# modifications: not fully specified (N-terminus); also: GAL4 DNA-BD fusion in pGBKT7, fused part not given here
# notes: also called BD-5ABC; pGBKT7-5ABC
# B3: GAL4 DNA-BD fusion of Band 3 peptide 5BC (amino acids 731-761) in pGBKT7 (other)
# peptide: SVTHANALTVMGKASTPGAAAQIQEVKEQRI
# modifications: not fully specified (N-terminus); also: GAL4 DNA-BD fusion in pGBKT7, fused part not given here
# Key:
# human RBC ghost proteins = experiment: Blot overlay assay, RBC ghost proteins; format: binding; conditions: biotinylated peptides each 400 μM
# Protocol: (§1) Naturally released P. falciparum (3D7 strain) merozoites isolated as described (Mrema, J. E., et al., Exp Parasitol 54:285-295, 1982) and human RBC ghosts prepared as described (Dodge, J. T., et al., Arch Biochem Biophys 100:119-130, 1963) were subjected to SDS-PAGE. Proteins transferred onto nitrocellulose membrane were blocked overnight with 10% milk, 2% BSA, TBST (0.05%) at 4° C. After washing (4×) in TBST, the blot was incubated with biotinylated Band 3 peptides (each 400 μM) in TBST (0.025%), 10 mM phosphate buffer (pH 8.0), 60 mM KCl for 4 h at RT. After extensive washing, the blot was incubated with neutravidin-linked horseradish peroxidase (1:21,000, Pierce Chemical Co., Rockford, Ill.) in TBST (0.05%) with 2% BSA for 5-6 h at RT. After washing the blot with TBST (5×) and TBS (2×), bound peptides were visualized by the ECL method (Pierce Chemical Co.).
# (§2) A binding study was carried out between the synthetic Band 3 peptides and merozoite proteins to understand the mechanism by which Band 3 peptides 5B, 5C, and 6A inhibit the parasite invasion of RBCs. P. falciparum merozoites essentially free of contaminating RBC membrane components were isolated (FIG. 3A), and total merozoite proteins were separated by SDS-PAGE (FIG. 3B). […] This was confirmed by Western blot using anti-spectrin and anti-Band 3 antibodies (not shown). […] Approximate molecular masses of these merozoite proteins are 175, 150, 125, 52, 48, 42, and 35 kDa (shown by arrowheads).
# [1] = tested on: P. falciparum intraerythrocytic growth; experiment: Growth inhibition assay by 3H-hypoxanthine incorporation method; format: cell-based, Plasmodium falciparum; conditions: 400 μM peptide; vs no peptide control
# Protocol: (§3) FIG. 2 depicts the inhibition of P. falciparum invasion into RBCs by human Band 3 peptides. […] Ectodomains are shown as boxes in the three models. (i) Overlapping 12 to 20-residue peptides shown in solid bars were prepared according to the putative ectodomain boundaries. (ii) Casey model (Fujinaga, J., et al., J Biol Chem 274:6626-6633, 1999). (iii) Reithmeier model (Popov, M., et al., J Biol Chem 272:18325-18332, 1997). (iv) Sherman model (Crandall, I., et al., Parasitology 108:257-267, 1994). […] Artemisinin (25 μM) and no peptide samples were positive and negative controls, respectively. FIG. 2C is a bar graph depicting of invasion inhibition assay by ^3H-hypoxanthine incorporation method. Effects of Band 3 peptides relative to the control sample (no peptide) are shown. Artemisinin (50 μM) and unrelated peptide derived from dematin were used as positive and negative control, respectively. FIG. 2D is a bar graph that depicts results of a growth inhibition assay by ^3H-hypoxanthine incorporation method. Effects of Band 3 peptides relative to the control sample (no peptide) are shown. In all inhibition assays, mean parasitemia from three experiments was calculated with standard error. DMSO background was corrected when necessary. Student's t test was used to compare with the control (no peptide). FIG. 2E is a table providing a summary of net charge and pI for Band 3 peptides.
# (§4) To investigate the possible role of Band 3 as a host receptor in P. falciparum invasion into RBCs, we employed a peptide scanning strategy based on recent topology models of human erythroid Band 3 (FIG. 2A). Synthetic peptides were derived from the putative ectodomains of human RBC Band 3, and their ability to inhibit the P. falciparum (3D7 strain) invasion of human RBCs in culture was tested using both visual counting (Schlichtherle, M., et al., Methods in Malaria Research 2000) and ^3H-hypoxanthine incorporation (Chulay, J. D., et al., Exp Parasitol 55:138-146, 1983) methods. […] Inhibition by these four Band 3 peptides was concentration dependent (50, 200, 500, and 1000 μM peptides, data not shown).
# [2] = tested on: P. falciparum (3D7 strain) merozoite proteins; experiment: Blot overlay assay, merozoite proteins; format: binding, Plasmodium falciparum; conditions: biotinylated peptides each 400 μM
# Protocol: as §1, §2
# GST-MSP138 = experiment: Solution-binding assay, GST-MSP138 on beads; parameters: species or system P. falciparum (FCB1 strain)
# Description: MSP138 (SEQ ID NO:33), MSP142 (SEQ ID NO:34), and MSP119 (SEQ ID NO:35) genes were amplified from a P. falciparum (FCB1 strain) cDNA library (J. B. Dame) by PCR using the following primers: 5′-[…] (SEQ ID NO: 14, MSP138, sense, 3121-3133, Xhol), 5′-[…] (SEQ ID NO:15, MSP138, antisense, 4200-4193, NotI), 5′-[…] (SEQ ID NO:16, MSP142, sense, 4201-4218, XhoI), 5′-[…] (SEQ ID NO:17, MSP142, antisense, 5334-5321 NotI), 5′-[…]: (SEQ ID NO:18, MSP119, sense, 4993-5009 BamHI), 5′-[…] (SEQ ID NO:19, MSP119, antisense, 5334-5318, EcoRI). Similar cDNA libraries as well as CDNA pools are available to the public from MR4, ATCC (www.malaria.atcc.org).
# Primers: 5′-[…] […] (SEQ ID NO:26, 6AB, antisense, 2640-2620, EcoRI).
# [3] = tested on: P. falciparum (3D7 strain) invasion of human RBCs; experiment: Invasion inhibition assay by visual counting method; format: cell-based, Plasmodium falciparum; conditions: for inhibition of invasion, visual counting assay: 500 μM peptide, ring stage parasites in Giemsa-stained thin smears, vs other Band 3 peptides and no peptide control; for inhibition of the invasion of Plasmodium falciparum malaria parasite into human erythrocytes in vitro: peptide scanning experiment, compared to control sample
# Protocol: as §3
# Plasmodium parasite cultures were maintained at 37° C. as described by Klotz, F. W., et. al., J Exp Med 165:1713-1718, 1987. To determine infection in RBCs, rings were counted from RBCs in Geimsa-stained thin smears.
# as §4
# [4] = tested on: P. falciparum (3D7 strain) invasion of human RBCs; experiment: Invasion inhibition assay by 3H-hypoxanthine incorporation method; format: cell-based, Plasmodium falciparum; conditions: for inhibition of invasion, 3H-hypoxanthine uptake assay: 400 μM peptide, vs other Band 3 peptides, no peptide and unrelated peptide; for IC50: 3H-hypoxanthine incorporation method, mean of three experiments±standard error, read-out: IC50 (50% inhibition in the parasite invasion of RBCs)
# Protocol: as §3, §4
# The IC50 values for peptides 5A and 5B could not be estimated because a saturable peptide concentration could not be reached with a low DMSO (≦1%) concentration. It is noteworthy that our peptides 5A, 5B, 5C, and 6A were designed by randomly dividing the two ectodomains of Band 3, and thus these peptides may not necessarily represent Band 3 amino acid compositions having the best inhibitory property. […] These findings are consistent with the view that Band 3 functions as an important receptor in the parasite invasion of RBCs.
# [5] = biological target: P. falciparum (3D7 strain) merozoite proteins (approximate molecular masses 175, 150, 125, 52, 48, 42, and 35 kDa); experiment: cell-based or functional assay
# [6] = biological target: T1, SV40 large T-antigen fused to GAL4 AD (pGADT7 vector), two-hybrid control (UniProt P03070 86-708); experiment: yeast two-hybrid assay
# T1 construct: Kit control; also called pGADT7-T
# T1 sequence (P03070 86-708 limits assumed): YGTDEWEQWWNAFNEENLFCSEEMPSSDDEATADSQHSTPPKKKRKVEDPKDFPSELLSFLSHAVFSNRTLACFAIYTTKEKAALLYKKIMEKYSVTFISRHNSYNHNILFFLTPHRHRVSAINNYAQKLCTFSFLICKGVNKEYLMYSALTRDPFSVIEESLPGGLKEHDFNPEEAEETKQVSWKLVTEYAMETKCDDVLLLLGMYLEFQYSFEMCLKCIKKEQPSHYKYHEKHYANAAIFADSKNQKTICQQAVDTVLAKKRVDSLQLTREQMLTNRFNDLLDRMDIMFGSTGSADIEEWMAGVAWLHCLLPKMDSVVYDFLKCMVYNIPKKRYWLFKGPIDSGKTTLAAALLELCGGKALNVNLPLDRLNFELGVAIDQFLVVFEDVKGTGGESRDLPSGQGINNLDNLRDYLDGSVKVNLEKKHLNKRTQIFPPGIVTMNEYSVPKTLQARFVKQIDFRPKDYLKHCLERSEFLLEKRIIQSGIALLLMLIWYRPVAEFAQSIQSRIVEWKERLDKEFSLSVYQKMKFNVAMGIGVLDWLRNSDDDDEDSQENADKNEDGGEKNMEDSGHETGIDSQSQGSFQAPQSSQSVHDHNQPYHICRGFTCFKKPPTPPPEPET
# Description: For the yeast two-hybrid assay, the co-transformation method was used to analyze the protein interaction in yeast AH109 cells using SD/-Leu/-Trp selection plates.
molecule,measurement,setting,value
"2: Synthetic human Band 3 peptide, amino acid 477-491, N-terminal biotin tag (Biotin-SFCETNGLEYIVGRV; UniProt P02730 477-491, looked up, fragment) [Peptide 2]","binding to RBC ghost proteins, blot overlay",human RBC ghost proteins,non-specific bindings
same,effect on intraerythrocytic growth of the parasite (3H-hypoxanthine uptake),[1],mild reduction in 3H-hypoxanthine uptake
same,"binding to merozoite proteins, blot overlay",[2],did not show significant binding
"3A: Synthetic human Band 3 peptide, amino acid 538-557, N-terminal biotin tag (Biotin-SKLIKIFQDHPLQKTYNYNV; UniProt P02730 538-557, looked up, fragment) [Peptide 3A]","binding to RBC ghost proteins, blot overlay",human RBC ghost proteins,non-specific bindings
same,"binding to merozoite proteins, blot overlay",[2],did not show significant binding
"4A: Synthetic human Band 3 peptide, amino acid 623-642, N-terminal biotin tag (Biotin-FIQDTYTQKLSVPDGFKVSN; UniProt P02730 623-642, looked up, fragment) [Peptide 4A]","binding to RBC ghost proteins, blot overlay",human RBC ghost proteins,non-specific bindings
same,"binding to merozoite proteins, blot overlay",[2],did not show significant binding
"5BC: Recombinant human Band 3 peptide, amino acid 731-761, expressed as GST or GAL4 DNA-BD fusion (SVTHANALTVMGKASTPGAAAQIQEVKEQRI; also: expressed as GST or GAL4 DNA-BD fusion) [Peptide 5BC]",binding to GST-MSP138 on beads,"GST-MSP138; 32P-labeled 5BC 21, 42, 84, 168 μM",concentration-dependent manner
same,Kd,"GST-MSP138; 32P-labeled peptide, pH 7.4, 25° C., 3.5 h, C-terminal truncated GST-MSP138",67 µM
"DRILLLFKPPKYHPDVPYVK [Peptide 6A, Synthetic human Band 3 peptide, amino acid 807-826]","inhibition of invasion, visual counting assay",[3],significant levels of inhibition of invasion
same,inhibition of the invasion of Plasmodium falciparum malaria parasite into human erythrocytes in vitro,[3]; listed as B36A,inhibited the invasion; also recorded: highest inhibition
same,effect on intraerythrocytic growth of the parasite (3H-hypoxanthine uptake),[1],did not affect the intraerythrocytic growth of the parasite
same,"binding to merozoite proteins, blot overlay",[2],specifically bind
same,"inhibition of invasion, 3H-hypoxanthine uptake assay",[4],strong inhibition
same,IC50,[4],316 ± 45 µM
"GKASTPGAAAQIQEVKEQRI [Peptide 5C, Synthetic human Band 3 peptide, amino acid 742-761]","inhibition of invasion, visual counting assay",[3],significant levels of inhibition of invasion
same,inhibition of the invasion of Plasmodium falciparum malaria parasite into human erythrocytes in vitro,[3]; listed as B35C,inhibited the invasion; also recorded: highest inhibition
same,effect on intraerythrocytic growth of the parasite (3H-hypoxanthine uptake),[1],did not affect the intraerythrocytic growth of the parasite
same,"binding to merozoite proteins, blot overlay",[2],specifically bind
same,"inhibition of invasion, 3H-hypoxanthine uptake assay",[4],moderate but significant levels of inhibition of invasion
same,IC50,[4],591 ± 131 µM
GMPWLSATTVRSVTHANALT [Peptide 5A],"inhibition of invasion, visual counting assay",[3],significant levels of inhibition of invasion
same,inhibition of the invasion of Plasmodium falciparum malaria parasite into human erythrocytes in vitro,[3],inhibited the invasion
same,effect on intraerythrocytic growth of the parasite (3H-hypoxanthine uptake),[1],mild reduction in 3H-hypoxanthine uptake
"Human Band 3 peptide 5C (amino acid 742-761), synthetic with N-terminal biotin tag","IC50 values (50% inhibition in the parasite invasion of RBCs), 3H-hypoxanthine incorporation method",[5],591 µM
"Human Band 3 peptide 6A (amino acid 807-826), synthetic with N-terminal biotin tag","IC50 values (50% inhibition in the parasite invasion of RBCs), 3H-hypoxanthine incorporation method",[5],316 µM
"Peptide 1: Synthetic human Band 3 peptide, amino acid 424-435, N-terminal biotin tag (Biotin-GGLLGEKTRNQM; UniProt P02730 424-435, looked up, fragment)",effect on intraerythrocytic growth of the parasite (3H-hypoxanthine uptake),[1],mild reduction in 3H-hypoxanthine uptake
same,"inhibition of invasion, 3H-hypoxanthine uptake assay",[4],moderate but significant levels of inhibition of invasion
"SVTHANALTVMGKASTPGAA [Peptide 5B, Synthetic human Band 3 peptide, amino acid 731-750]","inhibition of invasion, visual counting assay",[3],significant levels of inhibition of invasion
same,inhibition of the invasion of Plasmodium falciparum malaria parasite into human erythrocytes in vitro,[3],inhibited the invasion
same,effect on intraerythrocytic growth of the parasite (3H-hypoxanthine uptake),[1],did not affect the intraerythrocytic growth of the parasite
same,"inhibition of invasion, 3H-hypoxanthine uptake assay",[4],moderate but significant levels of inhibition of invasion
B1,binding result,[6],no binding
B2,binding result,[6],no binding
B3,binding result,[6],no binding
